Assay results reported in patent US9181264B2, “Fused heteroaryls and their uses” (Hutchison MediPharma Limited, priority 2011, dated 2015).

Columns and labels:
PI3Kα kinase = target: T1, PI3Kα kinase (Homo sapiens, UniProt P42336); assay: PI3Ka Transcreener ADP assay (fluorescence polarization); assay type: biochemical; conditions: 10 μM ATP, 30 μmol/L lipid substrate; read-out: IC50, inhibition of PI3Kα kinase
T1 construct: purchased Invitrogen PV4788
Experimental: Fluorescence polarization was used in this assay. The final conditions for kinase assay are 10 μM of ATP, 0.2 ng/μL of PI3Kα kinase, 30 μmol/L of lipid substrate and assay buffer (50 mmol/L of HEPES (pH 7.5), 100 mmol/L of NaCl, 1 mmol/L of EGTA, 3 mmol/L of MgCl2, 1 mmol/L of DTT and 0.03% CHAPS and 2% DMSO).
5 μL of test compounds in 10% DMSO and 10 μL of 0.5 ng/μL PI3K kinase (Invitrogen, PV4788) in assay buffer are put into a 96-well plate (Greiner, Cat. 675076), and then the reaction is started by the addition of 10 μL of 75 μmol/L PIP2, (PS Lipid Substrate Invitrogen, PV5100), and 25 μmol/L ATP mixture. After the mixture is incubated for 60 minutes at room temperature, 25 μL of transcreener Kinase Kit reagent—ADP Detection Mix—(Bellbrook Labs) is added, and the reaction is continued for an additional 1.5 hours. At the end, the plate is read in a Tecan Infinite F500 at excitation of 610 nm and emission of 670 nm.
A standard curve for ADP is obtained in a parallel way by replacing compound and PI3Kα kinase with DMSO and assay buffer, respectively. Different concentration of ADP, 0-10 μM, and ATP, 10-0 μM (ATP+ADP equal to 10 μM) are applied instead of a fixed concentration of ATP in this standard curve assay. Other conditions are the same as described above. The standard curve is plotted using Origin 8.0 software. The inhibition of test compound on ADP production is calculated based on ADP concentration from standard curve. IC50 is obtained using XLfit 2.0 software.

mTOR kinase = target: T2, mTOR kinase (Homo sapiens, UniProt P42345); assay: mTOR LanthaScreen TR-FRET assay; assay type: biochemical; conditions: 10 μmol/L ATP, GFP-4EBP1 substrate; read-out: IC50, inhibition of mTOR
T2 construct: purchased Invitrogen PV4753
T2 sequence (P42345 1360-2549 limits assumed): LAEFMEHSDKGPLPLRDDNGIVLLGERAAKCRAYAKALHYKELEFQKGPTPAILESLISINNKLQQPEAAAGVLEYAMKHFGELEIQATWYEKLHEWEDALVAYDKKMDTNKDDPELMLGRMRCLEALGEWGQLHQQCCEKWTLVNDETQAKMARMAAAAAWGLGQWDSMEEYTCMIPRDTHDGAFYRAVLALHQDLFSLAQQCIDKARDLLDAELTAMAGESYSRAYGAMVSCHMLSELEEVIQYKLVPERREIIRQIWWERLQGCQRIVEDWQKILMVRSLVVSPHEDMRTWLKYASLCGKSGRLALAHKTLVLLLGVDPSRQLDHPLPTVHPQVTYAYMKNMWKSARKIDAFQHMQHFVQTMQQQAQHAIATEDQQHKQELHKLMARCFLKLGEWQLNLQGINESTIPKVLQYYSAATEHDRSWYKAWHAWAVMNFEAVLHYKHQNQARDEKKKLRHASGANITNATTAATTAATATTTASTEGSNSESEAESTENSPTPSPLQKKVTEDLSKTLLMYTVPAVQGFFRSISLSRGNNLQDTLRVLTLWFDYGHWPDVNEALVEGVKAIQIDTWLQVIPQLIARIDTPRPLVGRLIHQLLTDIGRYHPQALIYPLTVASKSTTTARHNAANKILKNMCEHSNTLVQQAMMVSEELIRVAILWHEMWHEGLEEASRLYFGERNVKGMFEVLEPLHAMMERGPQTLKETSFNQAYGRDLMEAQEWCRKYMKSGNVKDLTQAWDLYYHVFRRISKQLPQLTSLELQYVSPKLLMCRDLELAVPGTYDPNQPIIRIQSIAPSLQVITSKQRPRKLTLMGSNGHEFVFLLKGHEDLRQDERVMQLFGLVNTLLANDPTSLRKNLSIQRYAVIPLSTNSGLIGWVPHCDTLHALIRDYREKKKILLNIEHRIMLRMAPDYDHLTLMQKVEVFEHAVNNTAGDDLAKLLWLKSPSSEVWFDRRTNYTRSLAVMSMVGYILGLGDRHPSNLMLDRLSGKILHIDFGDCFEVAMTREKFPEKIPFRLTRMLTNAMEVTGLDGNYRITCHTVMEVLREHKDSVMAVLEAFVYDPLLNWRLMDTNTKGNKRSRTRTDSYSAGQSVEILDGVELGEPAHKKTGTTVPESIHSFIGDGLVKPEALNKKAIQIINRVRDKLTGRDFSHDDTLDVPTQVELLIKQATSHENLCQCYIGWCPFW
Experimental: Compounds are tested using LanthaScreen TR-FRET Assay. The kinase reaction is completed in 384-well black plate (Corning, Cat. 3676). The final conditions for kinase assay are: 10 μmol/L of ATP, 0.2 ng/μL of mTOR kinase, 0.4 μmol/L of GFP-4EBP1 substrate and assay buffer (50 mmol/L of HEPES, pH 7.5, 0.01% of Tween 20, 1 mmol/L of EGTA, 10 mmol/L of MnCl2, 2 mmol/L of DTT and 1% DMSO).
To each well, 2.5 μL of test compounds in 4% DMSO and 2.5 μL of 0.8 ng/μL mTOR kinase (Invitrogen, PV4753) diluted in assay buffer are added. The reaction is initiated by the addition of 5 μL mixture of 0.8 μmol/L GFP-4EBP1 Substrate (Invitorgen, PV4759) and 20 μmol/L ATP mixtures. The mixture is incubated at room temperature for 60 minutes. 10 μL of 20 mmol/L EDTA and 4 nmol/L Tb-anti-p4EBP1 [pThr46] antibody (Invitrogen, PV4755) diluted in TR-FRET dilution buffer are added and incubated for an additional 1 hour. The plate is then read in a BioTek Synergy2 Reader at excitation of 340 nm and emission of 490 nm and 528 nm.
The inhibition of test compound is calculated based on the ratio of 528 nm/490 nm. IC50 of test compound is obtained using XLfit 2.0 software.

T1 sequence (P42336 whole entry): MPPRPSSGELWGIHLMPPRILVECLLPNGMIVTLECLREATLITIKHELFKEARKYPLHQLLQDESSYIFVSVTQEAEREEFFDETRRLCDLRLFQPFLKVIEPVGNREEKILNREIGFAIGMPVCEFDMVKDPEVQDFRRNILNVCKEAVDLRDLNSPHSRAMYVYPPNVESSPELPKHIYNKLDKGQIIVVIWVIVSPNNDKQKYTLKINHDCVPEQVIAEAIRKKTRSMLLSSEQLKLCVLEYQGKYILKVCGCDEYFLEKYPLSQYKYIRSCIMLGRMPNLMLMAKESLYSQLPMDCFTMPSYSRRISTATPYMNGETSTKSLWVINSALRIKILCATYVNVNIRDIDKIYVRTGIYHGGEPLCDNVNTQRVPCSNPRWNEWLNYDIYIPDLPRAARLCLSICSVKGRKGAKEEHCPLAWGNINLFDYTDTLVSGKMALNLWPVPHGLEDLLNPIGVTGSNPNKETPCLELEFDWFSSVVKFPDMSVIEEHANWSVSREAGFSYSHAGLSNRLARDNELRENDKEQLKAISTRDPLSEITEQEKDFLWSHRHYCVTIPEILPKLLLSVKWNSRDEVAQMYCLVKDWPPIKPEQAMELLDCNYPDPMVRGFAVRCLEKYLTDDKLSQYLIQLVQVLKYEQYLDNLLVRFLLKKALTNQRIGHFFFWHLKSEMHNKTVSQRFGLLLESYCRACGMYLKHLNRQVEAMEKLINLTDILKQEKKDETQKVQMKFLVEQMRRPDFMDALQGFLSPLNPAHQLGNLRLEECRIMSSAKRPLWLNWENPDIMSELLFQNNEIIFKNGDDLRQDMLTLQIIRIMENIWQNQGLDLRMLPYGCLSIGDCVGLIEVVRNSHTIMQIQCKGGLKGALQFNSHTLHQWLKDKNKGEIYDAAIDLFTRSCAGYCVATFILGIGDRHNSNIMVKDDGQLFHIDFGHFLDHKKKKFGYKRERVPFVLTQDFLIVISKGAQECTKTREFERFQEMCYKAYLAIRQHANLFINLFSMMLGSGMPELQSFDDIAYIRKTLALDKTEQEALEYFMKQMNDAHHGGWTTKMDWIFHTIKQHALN
T1 sequence (P27986 whole entry partner): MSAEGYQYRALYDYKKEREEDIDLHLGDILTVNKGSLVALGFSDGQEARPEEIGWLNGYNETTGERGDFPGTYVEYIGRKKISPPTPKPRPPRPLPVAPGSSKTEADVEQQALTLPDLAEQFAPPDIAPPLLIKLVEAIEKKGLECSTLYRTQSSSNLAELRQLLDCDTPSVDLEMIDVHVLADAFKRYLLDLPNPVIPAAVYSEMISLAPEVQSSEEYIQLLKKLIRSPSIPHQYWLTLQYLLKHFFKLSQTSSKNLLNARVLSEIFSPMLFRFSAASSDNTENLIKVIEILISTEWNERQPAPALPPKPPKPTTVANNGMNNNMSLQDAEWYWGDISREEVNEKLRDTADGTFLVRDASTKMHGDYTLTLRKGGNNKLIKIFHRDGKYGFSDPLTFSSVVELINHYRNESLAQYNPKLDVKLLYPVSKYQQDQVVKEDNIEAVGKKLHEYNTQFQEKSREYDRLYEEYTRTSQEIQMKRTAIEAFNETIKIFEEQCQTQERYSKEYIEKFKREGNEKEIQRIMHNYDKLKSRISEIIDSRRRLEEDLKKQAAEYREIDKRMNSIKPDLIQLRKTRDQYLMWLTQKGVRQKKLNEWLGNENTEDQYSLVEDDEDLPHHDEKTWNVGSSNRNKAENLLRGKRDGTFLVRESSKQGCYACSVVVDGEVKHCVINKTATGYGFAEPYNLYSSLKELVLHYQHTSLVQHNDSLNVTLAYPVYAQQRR

| SMILES | IC50 (PI3Kα kinase) [nM] | IC50 (mTOR kinase) [nM] |
| --- | --- | --- |
| C[C@@H](O)C(=O)N1CCC(n2nnc3cnc4ccc(-c5cnc(N)c(C(F)(F)F)c5)nc4c32)CC1 [Compound 21, (R)-1-(4-(8-(6-amino-5-(trifluoromethyl)pyridin-3-yl)-1H-[1,2,3]triazolo[4,5-c][1,5]naphthyridin-1-yl)piperidin-1-yl)-2-hydroxypropan-1-one] | < 100 | < 100 |
| Nc1ncc(-c2ccc3ncc4nnn(C5CCN(C(=O)CO)CC5)c4c3n2)cc1C(F)(F)F [Compound 25] | < 100 | < 100 |
| CC(C)(O)C(=O)N1CCC(n2nnc3cnc4ccc(-c5cnc(N)c(C(F)(F)F)c5)nc4c32)CC1 [Compound 26] | < 100 | < 100 |
| CC(C)C(=O)N1CCC(n2nnc3cnc4ccc(-c5cnc(N)c(C(F)(F)F)c5)nc4c32)CC1 [Compound 30, 1-(4-(8-(6-amino-5-(trifluoromethyl)pyridin-3-yl)-1H-[1,2,3]triazolo[4,5-c][1,5]naphthyridin-1-yl)piperidin-1-yl)-2-methylpropan-1-one] | < 100 | < 100 |
| N#CC1(C(=O)N2CCC(n3nnc4cnc5ccc(-c6cnc(N)c(C(F)(F)F)c6)nc5c43)CC2)CC1 [Compound 33] | < 100 | < 100 |
| CCCC(=O)N1CCC(n2nnc3cnc4ccc(-c5cnc(N)c(C(F)(F)F)c5)nc4c32)CC1 [Compound 35] | < 100 | < 100 |
| Cn1c(=O)n(-c2ccc(C(C)(C)C#N)nc2)c2c3cc(-c4cnc(N)nc4)ccc3ncc21 [Compound 42] | < 100 | < 100 |
| CN(C)C(=O)CN1CCC(n2nnc3cnc4ccc(-c5cnc(N)c(C(F)(F)F)c5)nc4c32)CC1 [Compound 43, 2-(4-(8-(6-amino-5-(trifluoromethyl)pyridin-3-yl)-1H-[1,2,3]triazolo[4,5-c][1,5]naphthyridin-1-yl)piperidin-1-yl)-N,N-dimethylacetamide] | < 100 | < 100 |
| CC1(CN2CCC(n3nnc4cnc5ccc(-c6cnc(N)c(C(F)(F)F)c6)nc5c43)CC2)COC1 [Compound 44] | < 100 | < 100 |
| CCNC(=O)N1CCC(n2nnc3cnc4ccc(-c5cnc(N)c(C(F)(F)F)c5)nc4c32)CC1 [Compound 45] | < 100 | < 100 |
| Nc1ncc(-c2ccc3ncc4nnn(C5CCN(CCO)CC5)c4c3n2)cc1C(F)(F)F [Compound 46] | < 100 | < 100 |
| CC(C)(C#N)c1ccc(-c2nnc3cnc4ccc(-c5cnc(N)c(C(F)(F)F)c5)cc4n23)cc1 [Compound 49, 2-(4-(8-(6-amino-5-(trifluoromethyl)pyridin-3-yl)-[1,2,4]triazolo[4,3-a]quinoxalin-1-yl)phenyl)-2-methylpropanenitrile] | < 100 | < 100 |
| CC(C)(C#N)c1ccc(-c2nnc3cnc4ccc(-c5ccc(N)nc5)cc4n23)cc1 [Compound 50] | < 100 | < 100 |
| CC(C)(C#N)c1ccc(-c2nnc3cnc4ccc(-c5ccc6nc(N)sc6c5)cc4n23)cc1 [Compound 52] | < 100 | < 100 |
| CC(C)(C#N)c1ccc(-c2nnc3cnc4ccc(-c5cnc6[nH]ncc6c5)cc4n23)cc1 [Compound 53] | < 100 | < 100 |
| CC(C)(C#N)c1ccc(-c2nnc3cnc4ccc(-c5ccc6nc(N)oc6c5)cc4n23)cc1 [Compound 55] | < 100 | < 100 |
| CC(C)(C#N)c1ccc(-c2nnc3cnc4ccc(-c5ccc6nc(N)sc6c5)cc4n23)cn1 [Compound 56] | < 100 | < 100 |
| Cc1cc(-c2ccc3ncc4nnc(-c5ccc(C(C)(C)C#N)cc5)n4c3c2)cnc1N [Compound 58] | < 100 | < 100 |
| N#Cc1cccc(-c2nnc3cnc4ccc(-c5ccc6nc(N)sc6c5)cc4n23)c1 [Compound 63] | < 100 | < 100 |
| CC(C)(C#N)c1ccc(-c2nnc3cnc4ccc(-c5cnc(N)c(F)c5)cc4n23)cc1 [Compound 66] | < 100 | < 100 |

| SMILES | IC50 (PI3Kα kinase) [nM] | IC50 (mTOR kinase) [nM] |
| --- | --- | --- |
| COc1cc(-c2ccc3ncc4nnc(-c5ccc(C(C)(C)C#N)cc5)n4c3c2)cnc1N [Compound 72] | < 100 | < 100 |
| CCOc1cc(-c2ccc3ncc4nnc(-c5ccc(C(C)(C)C#N)cc5)n4c3c2)cnc1N [Compound 75] | < 100 | < 100 |
| Nc1ncc(-c2ccc3ncc4ncn(C5CCN(C(=O)C6CC6)CC5)c4c3n2)cc1C(F)(F)F [Compound 88, (4-(8-(6-amino-5-(trifluoromethyl)pyridine-3-yl)-1H-imidazo[4,5-c][1,5]naphthyridin-1-yl)piperidin-1-yl)(cyclopropyl)methanone] | < 100 | < 100 |
| CCC(=O)N1CCC(n2cnc3cnc4ccc(-c5cnc(N)c(C(F)(F)F)c5)nc4c32)CC1 [Compound 96] | < 100 | < 100 |
| CN(C)C(=O)CN1CCC(n2cnc3cnc4ccc(-c5cnc(N)c(C(F)(F)F)c5)nc4c32)CC1 [Compound 98] | < 100 | < 100 |
| CC(=O)N1CCC(n2cnc3cnc4ccc(-c5cnc(N)c(C(F)(F)F)c5)nc4c32)CC1 [Compound 102] | < 100 | < 100 |
| CS(=O)(=O)N1CCC(n2cnc3cnc4ccc(-c5cnc(N)c(C(F)(F)F)c5)nc4c32)CC1 [Compound 103] | < 100 | < 100 |
| CC1(CN2CCC(n3cnc4cnc5ccc(-c6cnc(N)c(C(F)(F)F)c6)nc5c43)CC2)COC1 [Compound 105] | < 100 | < 100 |
| Nc1ncc(-c2ccc3ncc4ncn(C5CCOCC5)c4c3n2)cc1C(F)(F)F [Compound 106] | < 100 | < 100 |
| C[C@H](O)C(=O)N1CCC(n2cnc3cnc4ccc(-c5cnc(N)c(C(F)(F)F)c5)nc4c32)CC1 [Compound 107] | < 100 | < 100 |
| Cc1nc2cnc3ccc(-c4cnc(N)c(C(F)(F)F)c4)nc3c2n1C1CCN(C(=O)C2CC2)CC1 [Compound 119, (4-(8-(6-amino-5-(trifluoromethyl)pyridine-3yl)-2-methyl-1H-imidazo[4,5-c][1,5]naphthyridin-1-yl)piperidin-1-yl)(cyclopropyl)methanone] | < 100 | < 100 |
| CCC(=O)N1CCC(n2c(C)nc3cnc4ccc(-c5cnc(N)c(C(F)(F)F)c5)nc4c32)CC1 [Compound 120] | < 100 | < 100 |
| Cc1nc2cnc3ccc(-c4cnc(N)c(C(F)(F)F)c4)nc3c2n1C1CCN(CC2(C)COC2)CC1 [Compound 121] | < 100 | < 100 |
| Cc1nc2cnc3ccc(-c4cnc(N)c(C(F)(F)F)c4)nc3c2n1C1CCN(C(=O)[C@H](C)O)CC1 [Compound 122] | < 100 | < 100 |
| Cc1nc2cnc3ccc(-c4cnc(N)c(C(F)(F)F)c4)nc3c2n1C1CCN(CC(=O)N(C)C)CC1 [Compound 123] | < 100 | < 100 |
| Cc1nc2cnc3ccc(-c4cnc(N)c(C(F)(F)F)c4)nc3c2n1C1CCN(CCO)CC1 [Compound 129] | < 100 | < 100 |
| CCc1nc2cnc3ccc(-c4cnc(N)c(C(F)(F)F)c4)nc3c2n1C1CCOCC1 [Compound 131] | < 100 | < 100 |
| COc1ncc(-c2ccc3ncc4nnc(C)n4c3c2)cc1NS(=O)(=O)c1ccc(F)cc1F [Compound 147, 2,4-difluoro-N-(2-methoxy-5-(1-methyl-[1,2,4]triazolo[4,3-a]quinoxalin-8-yl)pyridin-3-yl)benzenesulfonamide] | < 100 | < 100 |
| COc1ncc(-c2ccc3ncc4nn(C)c(=O)n4c3c2)cc1NS(=O)(=O)c1ccc(F)cc1F [Compound 148] | < 100 | < 100 |
| CCn1nc2cnc3ccc(-c4cnc(OC)c(NS(=O)(=O)c5ccc(F)cc5F)c4)cc3n2c1=O [Compound 149] | < 100 | < 100 |
